Values quoted from earlier work as cited in article PMC8198792, “Prediction of Anticancer Peptides with High Efficacy and Low Toxicity by Hybrid Model Based on 3D Structure of Peptides” (International Journal of Molecular Sciences, 2021).
Like-named read-outs stand apart in the source and are kept apart here.

Columns and labels:
erythrocytes = conditions: cited from earlier work
Excerpt: Supplement ijms-22-05630-s001.zip/Hemloytic Peptides(seguence).xlsx, sheet "HD1" | column: Activity || Supplement ijms-22-05630-s001.zip/Hemloytic Peptides(seguence).xlsx, sheet "HD2" | column: Activity || Supplement ijms-22-05630-s001.zip/Hemloytic Peptides(seguence).xlsx, sheet "HD3" | column: Activity

cancer cell lines = tested on: cancer cell lines; design: method as in 6 sources, ref CancerPPD [45] and SATPdb ||| ref CancerPPD/SATPdb ||| ref CancerPPD, SATPdb, Swissprot (PDB) ||| ref CancerPPD/SATPdb/Swissprot(PDB) ||| ref CancerPPD / SATPdb ||| ...; conditions: cited from earlier work
Excerpt: Supplement ijms-22-05630-s001.zip/ACPs(seguence).xlsx, sheet "D1" | column: Activity || Supplement ijms-22-05630-s001.zip/ACPs(seguence).xlsx, sheet "D2" | column: Activity || Supplement ijms-22-05630-s001.zip/ACPs(seguence).xlsx, sheet "D3" | column: Activity || (+ 2 further places)

[1] = hemolytic peptides dataset HD3, 1 = hemolytic (positive set), 0 = non-hemolytic (negative set), labels taken from databases, ref Hemolytik/SATPdb
[2] = natural hemolytic peptide dataset HD1, label collected from databases, ref Hemolytik [49], SATPdb [34]
[3] = ACPs dataset D1, 1 = ACP (positive), 0 = non-ACP (negative), label taken from databases, ref CancerPPD [45] and SATPdb
[4] = ACPs dataset D4 (sheet "D4"), label 1 = ACP (CancerPPD ID), 0 = non-ACP (non-anticancer AMP, SATPdb ID), ref CancerPPD [45] and SATPdb
[5] = ACPs dataset D3 (supplement sheet "D3"), 1 = ACP, 0 = non-ACP, ref CancerPPD [45] and SATPdb
[6] = ACPs dataset D5 (sheet "D5"), label 1 = ACP (positive set), 0 = non-ACP (negative set), ref CancerPPD [45] and SATPdb
[7] = ACPs dataset D4 (sheet "D4"), label 1 = ACP, experimentally validated ACPs, ref CancerPPD [45] and SATPdb
[8] = ACPs dataset D5 (sheet "D5"), label 1 = ACP (positive set), sequences with CancerPPD/SATPdb ID, ref CancerPPD, SATPdb
[9] = ACPs dataset sheet D2, 1 = ACP (CancerPPD/SATPdb ID), 0 = non-ACP (Swissprot/PDB ID), ref CancerPPD, SATPdb, Swissprot (PDB)
[10] = ACPs dataset D2 (supplement ACPs(seguence).xlsx, sheet D2), dataset label 1/0 (ACP / non-ACP), entries identified by Swissprot(PDB ID), ref CancerPPD/SATPdb/Swissprot(PDB)
[11] = ACPs dataset D3 (sheet "D3"), label 1 = ACP, 0 = non-ACP, ref CancerPPD/SATPdb
[12] = ACPs dataset D4 (sheet "D4"), label 1 = ACP, 0 = non-ACP, ref CancerPPD / SATPdb
[13] = ACPs dataset D5, sheet "D5", label 1 = ACP, 0 = non-ACP, ref CancerPPD [45] and SATPdb

PKLKTFLSKWIG [satpdb28564]
Activity (erythrocytes): 0 | Activity (dataset HD1, hemolytic 1 / non-hemolytic 0) (erythrocytes): 0

GKLNLFLSRLEILKLFVGAL [satpdb18533]
Activity (erythrocytes): 0 | Activity (dataset HD1, hemolytic 1 / non-hemolytic 0) (erythrocytes): 0

GLLSGTSVRGSI [satpdb16160]
Activity (erythrocytes): 1 | Activity (dataset HD1, hemolytic 1 / non-hemolytic 0) (erythrocytes): 1

ILPLKLPWLPLRR [satpdb11800]
Activity (erythrocytes): 0

KLLLKLLLK [compound 3826]
Activity (erythrocytes): 1

CKTRTSTNTDHLWIAKSKARLSET [satpdb28106]
Activity (erythrocytes): 0 | Activity (dataset HD1, hemolytic 1 / non-hemolytic 0) (erythrocytes): 0

GLWSKIKTAGKSVAKAAAKAAVKAVTNAV [satpdb14676]
Activity (erythrocytes): 1 | Activity (dataset HD1, hemolytic 1 / non-hemolytic 0) (erythrocytes): 1

KLLKLLLKLLKLLLKLLLKLLK [compound 3828]
Activity (erythrocytes): 1

FLPLLLAGLPKLLCLFFKKC [satpdb14955]
Activity (erythrocytes): 1 | Activity (dataset HD1, hemolytic 1 / non-hemolytic 0) (erythrocytes): 1

KNLRRITRKIIHIIKKYG [satpdb15247]
Activity (erythrocytes): 1 | Activity (dataset HD1, hemolytic 1 / non-hemolytic 0) (erythrocytes): 1

GFWKKVGSAAWGGVKAAAKGAAVGGLNALAKHIQ [satpdb28387]
Activity (erythrocytes): 0 | Activity (dataset HD1, hemolytic 1 / non-hemolytic 0) (erythrocytes): 0

KKKKKKLLFAAWAAFAA [compound 1152]
Activity (erythrocytes): 1

FLSLIPHAINAVSAIAKHF [satpdb17651]
Activity (erythrocytes): 0

KNWKGIAGMAKKLLGKNWELMKK [satpdb11666]
Activity (erythrocytes; [1]): 1 | Activity (dataset HD1, hemolytic 1 / non-hemolytic 0) (erythrocytes; [2]): 1

LKDVEEAQQKIINIIRRL [satpdb22186]
Activity (erythrocytes): 0

KWKSFLkTFKSLKKTVLHTLLKAISS [satpdb10544]
Activity (erythrocytes): 1

VKLKVyPLKVKlyP [satpdb11392]
Activity (erythrocytes; Hemolytic peptides dataset HD2, label 1 = hemolytic, 0 = non-hemolytic, ref Hemolytik/SATPdb): 1 | Activity (erythrocytes; [1]): 1

ALWKTLLKKVLKA [satpdb11740]
Activity (erythrocytes): 1

CVHWQTNPARTSCIGP [satpdb12022]
Activity (erythrocytes): 0 | Activity (dataset HD1, hemolytic 1 / non-hemolytic 0) (erythrocytes): 0

WYLTLTLGYGRR [satpdb16552]
Activity (erythrocytes): 1 | Activity (dataset HD1, hemolytic 1 / non-hemolytic 0) (erythrocytes): 1

LLLKLLKLLLKLLLKLLK [compound 3688]
Activity (erythrocytes): 1

LRRLWLRANRL [satpdb19164]
Activity (erythrocytes): 0 | Activity (dataset HD1, hemolytic 1 / non-hemolytic 0) (erythrocytes): 0

FIFPKKNIINSLFGR [satpdb24412]
Activity (erythrocytes; [1]): 0 | Activity (dataset HD1, hemolytic 1 / non-hemolytic 0) (erythrocytes; [2]): 0

CKLLKTFLSKWIC [compound 3456]
Activity (erythrocytes): 1

KWKKLPKKLLKLL [satpdb21914]
Activity (erythrocytes): 0

GCRFCCNCCPNMSGCGVCCRF [satpdb21740]
Activity (erythrocytes; [1]): 0 | Activity (dataset HD1, hemolytic 1 / non-hemolytic 0) (erythrocytes; [2]): 0

GGLKKLGKKLEGAGKRVFNAAEKALPVVAGAKALG [satpdb11024]
Activity (cancer cell lines; [3]): 0 | Activity (cancer cell lines; [4]): 0

GKWMKLLKHILK [compound 3652]
Activity (cancer cell lines; [5]): 1 | Activity (cancer cell lines; [4]): 1 | Activity (cancer cell lines; [6]): 1

TEWSVCNSRCGRGYQKRTR [satpdb19902]
Activity (cancer cell lines; [3]): 1 | Activity (cancer cell lines; [7]): 1 | Activity (cancer cell lines; [8]): 1 | Activity (cancer cell lines; [9]): 1

CETWRTETTGATGQASSLLSGRLLEQKAASCHNSYIVLCIENSFMTSFSK [satpdb15843]
Activity (cancer cell lines; [3]): 1 | Activity (cancer cell lines; [7]): 1 | Activity (cancer cell lines; [8]): 1 | Activity (cancer cell lines; [9]): 1

YITCLFRGARCRVYSGRSCCFGYYCRRDFPGSIFGTCSRRNF [2DCW NMR - A 1-42]
Activity (cancer cell lines; [10]): 0 | Activity (cancer cell lines; [6]): 0

KSSAYSLQMGATAIKQVKKLFKKWGW [compound 4448]
Activity (cancer cell lines; [3]): 1 | Activity (cancer cell lines; [7]): 1 | Activity (cancer cell lines; [8]): 1 | Activity (cancer cell lines; [9]): 1

DDTPSSRCGSGGWGPCLPIVDLLCIVHVTVGCSGGFGCCRIG [2JR3 NMR - A 1-42]
Activity (cancer cell lines; [10]): 0 | Activity (cancer cell lines; [6]): 0

kWkSFLkTFkSLKkTVLHTLLkAISS [compound 1231]
Activity (cancer cell lines; [5]): 1 | Activity (cancer cell lines; [4]): 1 | Activity (cancer cell lines; [6]): 1

RLYRRLYRRLYRRLYRRLYRRLYRRLYRRLYRKKKKKKK [satpdb14208]
Activity (cancer cell lines; [11]): 0 | Activity (cancer cell lines; [12]): 0 | Activity (cancer cell lines; [13]): 0

KIKLFKKWPKFLHLAKKF [satpdb14419]
Activity (cancer cell lines; [11]): 0 | Activity (cancer cell lines; [12]): 0 | Activity (cancer cell lines; [13]): 0

GKWMSLWKHILK [compound 3657]
Activity (cancer cell lines; [5]): 1 | Activity (cancer cell lines; [4]): 1 | Activity (cancer cell lines; [6]): 1

RRPKGRGKRRREKQRPDAVPRR [satpdb18651]
Activity (cancer cell lines; [3]): 1 | Activity (cancer cell lines; [7]): 1 | Activity (cancer cell lines; [8]): 1 | Activity (cancer cell lines; [9]): 1

MKFYTIKLPKFLGGIVRAMLGSFRKD [2MVH NMR - A 1-26]
Activity (cancer cell lines; [6]): 0 | Activity (cancer cell lines; [9]): 0

KWKSFIKKLTDKFLHSAKKF [satpdb12512]
Activity (cancer cell lines; [11]): 0 | Activity (cancer cell lines; [12]): 0 | Activity (cancer cell lines; [13]): 0

AAPFLECQGRQGTCHFFAN [satpdb18859]
Activity (cancer cell lines; [3]): 1 | Activity (cancer cell lines; [7]): 1 | Activity (cancer cell lines; [8]): 1 | Activity (cancer cell lines; [9]): 1

MDIYVCTVCGYEYDPAKGDPDSGIKPGTKFEDLPDDWACPVCGASKDAFEKQ [2DSX X-ray 0.68 A 1-52]
Activity (cancer cell lines; [10]): 0 | Activity (cancer cell lines; [13]): 0

FLSSIGKILGNLL [satpdb11843]
Activity (cancer cell lines; ACPs dataset D1, label 1 = ACP, 0 = non-ACP (non-anticancer AMPs from SATPdb), ref CancerPPD/SATPdb): 0 | Activity (cancer cell lines; [4]): 0

FLPIIAGIAAKFLPKIFCTISKKC [compound 4359]
Activity (cancer cell lines; [3]): 1 | Activity (cancer cell lines; [7]): 1 | Activity (cancer cell lines; [8]): 1 | Activity (cancer cell lines; [9]): 1

KWLRRVWRWWR [compound 1877]
Activity (cancer cell lines; [5]): 1 | Activity (cancer cell lines; [4]): 1 | Activity (cancer cell lines; [6]): 1

GLFKVIKKVAKVIKKL [compound 4156]
Activity (cancer cell lines; [5]): 1 | Activity (cancer cell lines; [4]): 1 | Activity (cancer cell lines; [6]): 1

GLFAVIKKVAAVIRRL [compound 4129]
Activity (cancer cell lines; [5]): 1 | Activity (cancer cell lines; [4]): 1 | Activity (cancer cell lines; [6]): 1

KSVRGKGKGQKRKRKKSRYK [satpdb21584]
Activity (cancer cell lines; [3]): 1 | Activity (cancer cell lines; [7]): 1 | Activity (cancer cell lines; [8]): 1 | Activity (cancer cell lines; [9]): 1

VOLKfPVOLfP [satpdb14846]
Activity (cancer cell lines; [11]): 0 | Activity (cancer cell lines; [12]): 0 | Activity (cancer cell lines; [13]): 0

SGSDGGVCPKILKKCRRDSDCPGACICRGNGYCG [1HA9 NMR - A 1-34]
Activity (cancer cell lines; [6]): 0 | Activity (cancer cell lines; [9]): 0

MNQGKIWTVVPPAFGLPLMLGAVAITALLVHAAVLTHTTWYAAFLQGGVKKAA [1IJD X-ray 3.00 A/C/E 1-53]
Activity (cancer cell lines; [10]): 0 | Activity (cancer cell lines; [13]): 0

SNASVWECCSTGSWVPFTCC [satpdb10213]
Activity (cancer cell lines; [3]): 0 | Activity (cancer cell lines; [4]): 0

LPRFSTMPFIYCNINEVCHY [satpdb13486]
Activity (cancer cell lines; [3]): 1 | Activity (cancer cell lines; [7]): 1 | Activity (cancer cell lines; [8]): 1 | Activity (cancer cell lines; [9]): 1

IYSFDGRDIMTDPSWPQKVIWHGSSPHGVRLVDNYCEAWRTA [satpdb23000]
Activity (cancer cell lines; [3]): 1 | Activity (cancer cell lines; [7]): 1 | Activity (cancer cell lines; [8]): 1 | Activity (cancer cell lines; [9]): 1

KIKSCYYLPCFVTS [satpdb14785]
Activity (cancer cell lines; [3]): 1 | Activity (cancer cell lines; [7]): 1 | Activity (cancer cell lines; [8]): 1 | Activity (cancer cell lines; [9]): 1

KILRGVAKKIMRTFLRRILTGKK [compound 3321]
Activity (cancer cell lines; [5]): 1 | Activity (cancer cell lines; [4]): 1 | Activity (cancer cell lines; [6]): 1

SSTSPHRPRFS [satpdb14979]
Activity (cancer cell lines; [3]): 1 | Activity (cancer cell lines; [7]): 1 | Activity (cancer cell lines; [8]): 1 | Activity (cancer cell lines; [9]): 1

GIGKFLHSAKKFAKAFVAEIMNS [compound 1047]
Activity (cancer cell lines; [5]): 1 | Activity (cancer cell lines; [4]): 1 | Activity (cancer cell lines; [6]): 1

MRKEFHNVLSSGQLLADKRPARDYNRK [compound 3072]
Activity (cancer cell lines; [3]): 1 | Activity (cancer cell lines; [7]): 1 | Activity (cancer cell lines; [8]): 1 | Activity (cancer cell lines; [9]): 1

TSWSQCSKTCGTGISTRV [satpdb19109]
Activity (cancer cell lines; [3]): 1 | Activity (cancer cell lines; [7]): 1 | Activity (cancer cell lines; [8]): 1 | Activity (cancer cell lines; [9]): 1

LTFSDWWKLLAE [compound 5059]
Activity (cancer cell lines; [3]): 1 | Activity (cancer cell lines; [7]): 1 | Activity (cancer cell lines; [8]): 1 | Activity (cancer cell lines; [9]): 1

GRVPYPRGGLLkLLKklLKKLlKL [compound 3587]
Activity (cancer cell lines; [5]): 1 | Activity (cancer cell lines; [4]): 1 | Activity (cancer cell lines; [6]): 1
